For assay [1], the target named is T1, human AT1 receptor (Homo sapiens, UniProt P30556).
T1 construct: expressed in transfected cells; host or cells: CHO-K1
T1 sequence (P30556 1-359): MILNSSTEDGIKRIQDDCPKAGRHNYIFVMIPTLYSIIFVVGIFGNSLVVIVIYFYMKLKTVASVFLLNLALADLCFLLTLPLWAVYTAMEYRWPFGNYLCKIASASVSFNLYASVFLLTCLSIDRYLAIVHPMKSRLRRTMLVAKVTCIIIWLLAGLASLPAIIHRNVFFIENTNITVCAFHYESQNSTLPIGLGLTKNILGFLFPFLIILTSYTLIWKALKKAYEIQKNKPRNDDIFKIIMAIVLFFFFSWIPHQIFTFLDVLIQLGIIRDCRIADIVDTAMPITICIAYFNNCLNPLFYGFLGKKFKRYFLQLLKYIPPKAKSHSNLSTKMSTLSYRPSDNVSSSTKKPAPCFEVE
The assay is described as follows: Binding assay using human AT1 receptor-expressing CHO-K1 cell membrane fraction ([125I]-angiotensin II). Conditions: 22.5 pM [125I]-angiotensin II, 9 μg AT1 membrane, 1 hr room temperature; read-out: AT1 receptor binding inhibitory action (IC50 (nM)). The procedure, abridged:
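CHO-K1 membranes stably expressing AT1 (9 μg) incubated with 22.5 pM [125I]-angiotensin II and compound in 50 mM Tris pH 7.4, 10 mM MgCl2, with or without 0.3 mg/mL fatty acid-free BSA, 1 hr at room temperature. Bound radioactivity counted after GF/C filtration; nonspecific binding with 1 μM CV-11974; IC50 calculated.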

The target of assay [2] is T2, PPARγ (Homo sapiens, UniProt P37231).
T2 construct: expressed in transfected cells; host or cells: CHO-K1
T2 sequence (P37231 1-477 isoform P37231-2): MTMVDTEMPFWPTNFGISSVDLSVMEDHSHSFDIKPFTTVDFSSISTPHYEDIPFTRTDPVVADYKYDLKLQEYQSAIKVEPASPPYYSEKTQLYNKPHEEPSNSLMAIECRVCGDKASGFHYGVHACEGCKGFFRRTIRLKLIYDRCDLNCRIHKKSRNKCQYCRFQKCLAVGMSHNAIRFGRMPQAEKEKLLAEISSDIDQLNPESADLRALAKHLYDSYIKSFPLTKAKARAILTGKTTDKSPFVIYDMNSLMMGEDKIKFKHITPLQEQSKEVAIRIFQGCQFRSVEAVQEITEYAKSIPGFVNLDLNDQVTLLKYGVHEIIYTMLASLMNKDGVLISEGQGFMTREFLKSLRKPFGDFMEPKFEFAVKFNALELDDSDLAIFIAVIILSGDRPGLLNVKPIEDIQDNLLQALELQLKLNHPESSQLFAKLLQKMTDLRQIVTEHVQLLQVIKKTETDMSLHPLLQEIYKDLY
T2 sequence (P19793 1-462 partner): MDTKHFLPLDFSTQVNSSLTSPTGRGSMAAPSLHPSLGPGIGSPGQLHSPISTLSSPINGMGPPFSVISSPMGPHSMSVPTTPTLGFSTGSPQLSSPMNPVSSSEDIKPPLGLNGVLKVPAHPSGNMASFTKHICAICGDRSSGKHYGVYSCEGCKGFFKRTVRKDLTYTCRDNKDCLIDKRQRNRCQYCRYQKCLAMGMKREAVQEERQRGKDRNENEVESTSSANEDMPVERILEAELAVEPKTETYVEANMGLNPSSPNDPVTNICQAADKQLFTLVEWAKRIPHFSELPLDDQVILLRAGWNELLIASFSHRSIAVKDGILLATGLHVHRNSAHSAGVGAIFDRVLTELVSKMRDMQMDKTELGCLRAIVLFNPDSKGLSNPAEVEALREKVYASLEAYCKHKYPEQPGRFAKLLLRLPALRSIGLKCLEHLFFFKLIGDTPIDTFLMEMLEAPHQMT
The assay is described as follows: Evaluation of PPARγ activating action (luciferase reporter in PPARγ:RXRα:4ERPP/CHO-K1 cells). In kind it is cell-based. To be noted: CHO-K1, 24 h, read-out: PPARγ activating action (activation % (10^−6 M)). In outline:
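CHO-K1 cells stably carrying PPARγ, RXRα and a 4ERPP luciferase reporter were treated with compound for 1 day at 37 °C in F12 medium with 0.1% fatty acid-free BSA. Luciferase activity was read and scaled between no compound (0%) and reference agonist compound X at 1 μM (100%).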
For orientation: Reporter assays use an easily measured gene product as a stand-in for the process of interest.

[3] abbreviates: test compound 10^−6 M, luciferase activity relative to control compound X (1 μM) = 100%, non-administration group = 0%.

Structures are written as SMILES. Counter-ions that a name gives are not always drawn. Like-named read-outs stand apart in the source and are kept apart here.

Results on 17 compounds are retold here after US20100056526A1, “HETEROMONOCYCLIC COMPOUND AND USE THEREOF” (Takeda Pharmaceutical Company Limited, priority 2006, published 2010).

By IC50 is commonly meant the concentration at which inhibition is half-maximal. On to `CCCCc1nc(C)n(CC2CCCCO2)c(=O)c1Cc1ccc(-c2ccccc2-c2noc(=O)[nH]2)cc1` (stereo not shown) [Example 160, 6-butyl-2-methyl-5-{[2′-(5-oxo-4,5-dihydro-1,2,4-oxadiazol-3-yl)biphenyl-4-yl]methyl}-3-(tetrahydro-2H-pyran-2-ylmethyl)pyrimidin-4(3H)-one], for which the IC50 in assay [1] turned out to be 1.8 nM. Further, the activation at 1 µM in assay [2] (setting [3]) was determined as 61.6%.
On the same counts, the results for `CCCc1nc(CC)c(-c2ccc(OC(C)C)nc2)c(=O)n1Cc1ccc(-c2ccccc2-c2noc(=O)[nH]2)cc1` [Example 483, 6-ethyl-5-(6-isopropoxypyridin-3-yl)-3-{[2′-(5-oxo-4,5-dihydro-1,2,4-oxadiazol-3-yl)biphenyl-4-yl]methyl}-2-propylpyrimidin-4(3H)-one] are 2.4 nM and 31.5%.
Taken in the same sequence, the figures for `CCCc1nc(CC)n(-c2ccc(OC3CCOCC3)cc2)c(=O)c1Cc1ccc(-c2ccccc2-c2noc(=O)[nH]2)cc1` [Example 378, 2-ethyl-5-{[2′-(5-oxo-4,5-dihydro-1,2,4-oxadiazol-3-yl)biphenyl-4-yl]methyl}-6-propyl-3-[4-(tetrahydro-2H-pyran-4-yloxy)phenyl]pyrimidin-4(3H)-one] were 1.5 nM and 46.9%.
On the same counts, the results for `CCCc1nc(CC)c(Oc2ccc(CC)cc2)c(=O)n1Cc1ccc(-c2ccccc2-c2noc(O)n2)cc1` [Example 480, 6-ethyl-5-(4-ethylphenoxy)-3-{[2′-(5-oxo-4,5-dihydro-1,2,4-oxadiazol-3-yl)biphenyl-4-yl]methyl}-2-propylpyrimidin-4(3H)-one] are 3.2 nM and 30.8%.
With `CCCCc1nc(C)n(Cc2ccc(OC)cc2)c(=O)c1Cc1ccc(-c2ccccc2-c2noc(=O)[nH]2)cc1` [Example 58, 6-butyl-3-(4-methoxybenzyl)-2-methyl-5-{[2′-(5-oxo-4,5-dihydro-1,2,4-oxadiazol-3-yl)biphenyl-4-yl]methyl}pyrimidin-4(3H)-one], in assay [1], the IC50 came to 1.5 nM. Besides, in assay [2] (setting [3]), the activation at 1 µM came to 55.1%.
On the same counts, the results for `CCCCc1nc(C)n(Cc2c(F)cccc2F)c(=O)c1Cc1ccc(-c2ccccc2-c2noc(=O)[nH]2)cc1` [Example 165, 6-butyl-3-(2,6-difluorobenzyl)-2-methyl-5-{[2′-(5-oxo-4,5-dihydro-1,2,4-oxadiazol-3-yl)biphenyl-4-yl]methyl}pyrimidin-4(3H)-one] are 1.7 nM and 59%.
With `CCCc1nc(CC)c(-c2ccc(OC(C)(C)CO)cc2)c(=O)n1Cc1ccc(-c2ccccc2-c2noc(O)n2)cc1` [Example 512, 6-ethyl-5-[4-(2-hydroxy-1,1-dimethylethoxy)phenyl]-3-{[2′-(5-oxo-4,5-dihydro-1,2,4-oxadiazol-3-yl)biphenyl-4-yl]methyl}-2-propylpyrimidin-4(3H)-one], in assay [1], the IC50 stood at 1.3 nM. In addition, the activation at 1 µM in assay [2] (setting [3]) was 20.3%.
Regarding `CCCc1nc(CC)c(C(O)C(C)C)c(=O)n1Cc1ccc(-c2ccccc2-c2noc(O)n2)cc1` (stereo not shown) [Example 473, 6-ethyl-5-(1-hydroxy-2-methylpropyl)-3-{[2′-(5-oxo-4,5-dihydro-1,2,4-oxadiazol-3-yl)biphenyl-4-yl]methyl}-2-propylpyrimidin-4(3H)-one potassium salt], in assay [1], the IC50 came out at 3.6 nM. Further, the activation at 1 µM in assay [2] came to 15.7%.
`CCCc1nc(C)n(-c2ccc(OC(C)C)cc2)c(=O)c1Cc1ccc(-c2ccccc2-c2noc(=O)[nH]2)c(OC)c1` [Example 400, 3-(4-isopropoxyphenyl)-5-{[2-methoxy-2′-(5-oxo-4,5-dihydro-1,2,4-oxadiazol-3-yl)biphenyl-4-yl]methyl}-2-methyl-6-propylpyrimidin-4(3H)-one]: the IC50 in assay [1] came to 2.8 nM. Besides, in assay [2] (setting [3]), the activation at 1 µM amounted to 21.3%.
For `CCCc1nc(C)n(-c2ccc(OC(C)C#N)cc2)c(=O)c1Cc1ccc(-c2ccccc2-c2noc(=O)[nH]2)cc1` (stereo not shown) [Example 327, 2-{4-[2-methyl-6-oxo-5-{[2′-(5-oxo-4,5-dihydro-1,2,4-oxadiazol-3-yl)biphenyl-4-yl]methyl}-4-propylpyrimidin-1(6H)-yl]phenoxy}propanenitrile], the IC50 in assay [1] was 2.2 nM. Moreover, the activation at 1 µM in assay [2] (setting [3]) came out at 22.6%.
As for `CCCc1nc(CC)n(-c2ccc(OC3CCCC3=O)cc2)c(=O)c1Cc1ccc(-c2ccccc2-c2noc(=O)[nH]2)cc1` (stereo not shown) [Example 382, 2-ethyl-3-{4-[(2-oxocyclopentyl)oxy]phenyl}-5-{[2′-(5-oxo-4,5-dihydro-1,2,4-oxadiazol-3-yl)biphenyl-4-yl]methyl}-6-propylpyrimidin-4(3H)-one], the IC50 in assay [1] amounted to 1.2 nM. In addition, the activation at 1 µM in assay [2] (setting [3]) amounted to 27.2%.
In the case of `CCCc1nc(C)n(-c2ccc3c(c2)CC(C)(C)O3)c(=O)c1Cc1ccc(-c2ccccc2-c2noc(O)n2)c(F)c1` [Example 402, 3-(2,2-dimethyl-2,3-dihydro-1-benzofuran-5-yl)-5-{[2-fluoro-2′-(5-oxo-4,5-dihydro-1,2,4-oxadiazol-3-yl)biphenyl-4-yl]methyl}-2-methyl-6-propylpyrimidin-4(3H)-one], the IC50 in assay [1] was 1.8 nM. Also, the activation at 1 µM in assay [2] (setting [3]) amounted to 24.1%.
Taken in the same sequence, the figures for `CCCc1nc(CC)n(-c2ccc(OC3(CO)CCC3)cc2)c(=O)c1Cc1ccc(-c2ccccc2-c2noc(=O)[nH]2)cc1` [Example 419, 2-ethyl-3-(4-{[1-(hydroxymethyl)cyclobutyl]oxy}phenyl)-5-{[2′-(5-oxo-4,5-dihydro-1,2,4-oxadiazol-3-yl)biphenyl-4-yl]methyl}-6-propylpyrimidin-4(3H)-one] were 1.3 nM and 27.2%.
Take `CCCc1nc(CC)n(-c2ccc(OC(C)(C)C)cc2)c(=O)c1Cc1ccc(-c2ccccc2-c2noc(=O)[nH]2)cc1` [Example 364, 3-(4-tert-butoxyphenyl)-2-ethyl-5-{[2′-(5-oxo-4,5-dihydro-1,2,4-oxadiazol-3-yl)biphenyl-4-yl]methyl}-6-propylpyrimidin-4(3H)-one]: the IC50 in assay [1] worked out at 1.9 nM. Also, the activation at 1 µM in assay [2] (setting [3]) came to 32.6%.
Consider `CCCc1nc(C)n(-c2ccc(OC(C)CF)cc2)c(=O)c1Cc1ccc(-c2ccccc2-c2noc(=O)[nH]2)cc1` (stereo not shown) [Example 277, 3-[4-(2-fluoro-1-methylethoxy)phenyl]-2-methyl-5-{[2′-(5-oxo-4,5-dihydro-1,2,4-oxadiazol-3-yl)biphenyl-4-yl]methyl}-6-propylpyrimidin-4(3H)-one], for which, in assay [1], the IC50 turned out to be 1.8 nM. In assay [2] (setting [3]), the activation at 1 µM is 33.5%.
Taken in the same sequence, the figures for `CCCc1nc(CC)c(-c2ccc(OC(C)C)c(F)c2)c(=O)n1Cc1ccc(-c2ccccc2-c2noc(=O)[nH]2)cc1` [Example 460, 6-ethyl-5-(3-fluoro-4-isopropoxyphenyl)-3-{[2′-(5-oxo-4,5-dihydro-1,2,4-oxadiazol-3-yl)biphenyl-4-yl]methyl}-2-propylpyrimidin-4(3H)-one] were 2.2 nM and 30%.
On to `CCCCc1nc(C)n(-c2cccc(C(C)(C)O)c2)c(=O)c1Cc1ccc(-c2ccccc2-c2noc(=O)[nH]2)cc1` [Example 217, 6-butyl-3-[3-(1-hydroxy-1-methylethyl)phenyl]-2-methyl-5-{[2′-(5-oxo-4,5-dihydro-1,2,4-oxadiazol-3-yl)biphenyl-4-yl]methyl}pyrimidin-4(3H)-one], for which the IC50 in assay [1] amounted to 1.1 nM. For the same compound, the activation at 1 µM in assay [2] (setting [3]) was found to be 26.8%.
